Laboratory results from US11246865B2 (priority 2017, dated 2022).
“And” between values parts separate entries of the source, which are not always exact repeats. Equal entries are not always repeated. “Also recorded” adds a separate entry of the source.

Assays:
[1] = rat, in vivo
[2] = Preclinical toxicity profile; type: in vivo
Excerpt: The preclinical toxicity profile of DPI-125 was as expected for an opioid compound, with two positive exceptions.

[3] = Phase 1 study DPI-125.IV.001, safety of single intravenous bolus doses; type: in vivo, human
Description: Given this positive preclinical data, Good Laboratory Practice (GLP) Investigational New Drug (IND) enabling toxicology studies were performed. DPI-125 was tested in human subjects in a PK and safety study. DPI-125.IV.001, was a randomized, single-center, double-blind, placebo-controlled, dose escalating Phase 1 study. The primary objective was to evaluate the safety of single doses of DPI-125 administered by intravenous bolus infusion in normal healthy adult subjects. Male and female subjects between 18 and 55 years of age, inclusive, who were in good health and who were not taking any medications were eligible for enrollment. For each dose group, cohorts of 6 subjects were randomized to receive either placebo (n=1) or DPI-125 for Injection (n=5) as a single bolus dose of 5, 10, 20, or 50 μg/kg administered over 2 minutes. A final cohort received 25 μg/kg administered over 1 minute. For this first in human study, it was decided that 50 μg/kg should be the highest dose to be tested so the maximum tolerated dose was not determined.

[4] = Study 1: tolerance and cross-tolerance, tail pinch test (MPE); type: in vivo, rat; settings: for MPE on Day 1: all animals, both dose points and both time points (20 and 30 min); for time to maximal/complete tolerance: b.i.d. s.c. dosing, morphine 5.0 mg/kg, DPI-125 1.0 mg/kg; for antinociceptive effect / tolerance in DPI-125 tolerant animals: tolerant to 1.0 mg/kg DPI-125 BID; for antinociceptive effect / tolerance in DPI-125 tolerant animals / antinociceptive effect / tolerance in morphine tolerant animals: challenge morphine 5.0 or DPI-125 1.0 mg/kg; for antinociceptive effect / tolerance in morphine tolerant animals: tolerant to 5.0 mg/kg morphine BID
[5] = Studies 2 and 3: antinociceptive ED50 in naive and tolerant animals, tail pinch test; type: in vivo, rat; settings: for antinociceptive ED50: s.c.; for antinociceptive ED50 / ED50: 20 min tail pinch; for ED50: Rattus norvegicus, sc, 20 min
[6] = target: T1, delta receptor in the mouse vas deferens (Mus musculus, UniProt P32300); assay: Mouse vas deferens delta receptor agonism
T1 construct: from tissue; host or cells: mouse vas deferens
T1 sequence (P32300 whole entry): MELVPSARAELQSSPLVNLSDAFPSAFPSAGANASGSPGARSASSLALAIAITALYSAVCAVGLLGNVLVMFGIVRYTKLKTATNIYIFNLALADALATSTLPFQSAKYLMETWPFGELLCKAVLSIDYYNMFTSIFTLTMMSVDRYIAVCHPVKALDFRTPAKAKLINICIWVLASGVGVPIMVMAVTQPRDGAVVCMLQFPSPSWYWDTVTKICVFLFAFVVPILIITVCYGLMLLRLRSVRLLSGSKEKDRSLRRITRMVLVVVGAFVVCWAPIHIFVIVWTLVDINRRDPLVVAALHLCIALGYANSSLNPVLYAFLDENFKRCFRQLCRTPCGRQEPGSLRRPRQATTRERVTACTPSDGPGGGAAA

[7] = target: T2, delta receptor in the mouse brain (Mus musculus, UniProt P32300); assay: Mouse brain delta receptor agonism
T2 construct: from tissue; host or cells: mouse brain
T2 sequence (P32300 whole entry): as above

[8] = rat, in vivo; remark: listed apart in the source
in vivo = settings: rat
[9] = healthy adults, single IV bolus 5-50 μg/kg
[10] = DPI-125 tolerant animals, challenge dose 1 (day 7), 30 min
[11] = DPI-125 tolerant animals, challenge dose 1 (day 7), morphine 5.0 or DPI-125 1.0 mg/kg s.c., 20 min
[12] = DPI-125 tolerant animals, challenge dose 2 (day 7.25), 20 min
[13] = DPI-125 tolerant animals, challenge dose 2 (day 7.25), 30 min
[14] = DPI-125 tolerant animals, challenge dose 3 (day 8), 20 min
[15] = DPI-125 tolerant animals, challenge dose 3 (day 8), 30 min
[16] = DPI-125 tolerant animals, challenge dose 4 (day 8.25), 20 min
[17] = DPI-125 tolerant animals, challenge dose 4 (day 8.25), 30 min
[18] = morphine tolerant animals, challenge dose 1 (day 6), 30 min
[19] = morphine tolerant animals, challenge dose 1 (day 6), morphine 5.0 or DPI-125 1.0 mg/kg s.c., 20 min
[20] = morphine tolerant animals, challenge dose 2 (day 6.25), 20 min
[21] = morphine tolerant animals, challenge dose 2 (day 6.25), 30 min
[22] = morphine tolerant animals, challenge dose 3 (day 7), 20 min
[23] = morphine tolerant animals, challenge dose 3 (day 7), 30 min
[24] = morphine tolerant animals, challenge dose 4 (day 7.25), 20 min
[25] = morphine tolerant animals, challenge dose 4 (day 7.25), 30 min
[26] = tolerance development, dose 1 (day 1), s.c. BID (morphine 5.0, DPI-125 1.0 mg/kg), 20 minutes post-drug
[27] = tolerance development, dose 1 (day 1), s.c. BID (morphine 5.0, DPI-125 1.0 mg/kg), 30 minutes post-drug
[28] = tolerance development, dose 2 (day 1.25), s.c. BID, 20 minutes post-drug
[29] = tolerance development, dose 2 (day 1.25), s.c. BID, 30 minutes post-drug
[30] = tolerance development, dose 3 (day 2), s.c. BID, 20 minutes post-drug
[31] = tolerance development, dose 3 (day 2), s.c. BID, 30 minutes post-drug
[32] = tolerance development, dose 4 (day 2.25), s.c. BID, 20 minutes post-drug
[33] = tolerance development, dose 4 (day 2.25), s.c. BID, 30 minutes post-drug
[34] = tolerance development, dose 5 (day 3), s.c. BID, 20 minutes post-drug
[35] = tolerance development, dose 5 (day 3), s.c. BID, 30 minutes post-drug
[36] = tolerance development, dose 6 (day 3.25), s.c. BID, 20 minutes post-drug
[37] = tolerance development, dose 6 (day 3.25), s.c. BID, 30 minutes post-drug
[38] = tolerance development, dose 7 (day 4), s.c. BID, 20 minutes post-drug
[39] = tolerance development, dose 7 (day 4), s.c. BID, 30 minutes post-drug
[40] = tolerance development, dose 8 (day 4.25), s.c. BID, 20 minutes post-drug
[41] = tolerance development, dose 8 (day 4.25), s.c. BID, 30 minutes post-drug
[42] = tolerance development, dose 9 (day 5), s.c. BID, 20 minutes post-drug
[43] = tolerance development, dose 9 (day 5), s.c. BID, 30 minutes post-drug
[44] = tolerance development, dose 10 (day 5.25), s.c. BID, 20 minutes post-drug
[45] = tolerance development, dose 10 (day 5.25), s.c. BID, 30 minutes post-drug
[46] = DPI-125 tolerant versus naive animals

C=CCN1C[C@H](C)N([C@H](c2ccsc2)c2cccc(O)c2)C[C@H]1C [DPI-125, (−)3-((S)-((2S,5R)-4-allyl-2,5-dimethyl-1-piperazinyl)(3-thienyl)methyl)phenol]
Analgesic ED50 Tail Pinch [1]: 0.050 mg/kg
analgesic potency relative to morphine [1]: > 40 ×
antinociceptive potency relative to morphine [1]: 47 times
emesis ([2]; even at the highest doses given): did not occur
flushing, reddened mucous membranes or urticaria ([2]; in vivo): did not produce any
seizure activity / seizure liability ([3]; EEG, first in human trial): no seizure activity was noted; also recorded: does not have seizure liability
dysphoria as a side effect ([3]; first in human trial): nor does it exhibit dysphoria
corrected QT intervals [3, 9]: No time- or dose-related trends
deaths or serious AEs [3, 9]: no deaths or any other serious AEs reported
most common drug-related AEs [3, 9]: somnolence, dizziness, and paraesthesia
tolerability [3, 9]: well tolerated
Mean MPE [4, 10]: 3.51%
Mean MPE [4, 11]: 8.77%
Mean MPE [4, 12]: 22.82%
Mean MPE [4, 13]: 7.90%
Mean MPE [4, 14]: 9.65%
Mean MPE [4, 15]: 2.63%
Mean MPE [4, 16]: 1.8±1.8% and 1.76%
Mean MPE [4, 17]: 0.88%
MPE on Day 1 [4]: 100%
time to maximal/complete tolerance [4]: 8 days
Mean MPE [4, 18]: 80.7±15.2% and 80.7%
Mean MPE [4, 19]: 64.9%
Mean MPE [4, 20]: 81.6±12.6% and 81.6%
Mean MPE [4, 21]: 42.1%
Mean MPE [4, 22]: 50.9%
Mean MPE [4, 23]: 57.0%
Mean MPE [4, 24]: 30.7%
Mean MPE [4, 25]: 26.3%
Mean MPE [4, 26]: 100.0%
Mean MPE [4, 27]: 100.0%
Mean MPE [4, 28]: 100.0%
Mean MPE [4, 29]: 100.0%
Mean MPE [4, 30]: 99.1%
Mean MPE [4, 31]: 100.0%
Mean MPE [4, 32]: 79.8%
Mean MPE [4, 33]: 88.2%
Mean MPE [4, 34]: 84.7±10.0% and 84.7%
Mean MPE [4, 35]: 66.7±10.9% and 66.7%
Mean MPE [4, 36]: 81.1%
Mean MPE [4, 37]: 69.7%
Mean MPE [4, 38]: 70.6±12.3% and 70.6%
Mean MPE [4, 39]: 72.8%
Mean MPE [4, 40]: 75.0%
Mean MPE [4, 41]: 51.3%
Mean MPE [4, 42]: 75.9±9.5% and 75.9%
Mean MPE [4, 43]: 40.8±11.2% and 40.8%
Mean MPE [4, 44]: 47.4±11.9% and 47.4%
Mean MPE [4, 45]: 28.5±9.3% and 28.5%
Mean MPE ([4]; tolerance development, dose 11 (day 6), s.c. BID, 20 minutes post-drug): 34.2±12.5% and 34.2%
Mean MPE ([4]; tolerance development, dose 11 (day 6), s.c. BID, 30 minutes post-drug): 21.1%
Mean MPE ([4]; tolerance development, dose 12 (day 6.25), s.c. BID, 20 minutes post-drug): 37.7±12.7% and 37.7%
Mean MPE ([4]; tolerance development, dose 12 (day 6.25), s.c. BID, 30 minutes post-drug): 11.8±7.9% and 11.8%
antinociceptive effect / tolerance in DPI-125 tolerant animals [4]: no antinociceptive effects
antinociceptive effect / tolerance in morphine tolerant animals [4]: only partially tolerant; also recorded: significant antinociceptive effects
antinociceptive ED50 ([5]; DPI-125 tolerant animals): 1.218 mg/kg
Fold Change of ED50 [5, 46]: 2.99 fold and 3.0 fold
ED50 ([5]; DPI-125 tolerant animals): 1.22 mg/kg
ED50 ([5]; morphine tolerant animals): 0.72 mg/kg
ED50 ([5]; naive animals): 0.41 mg/kg
potency in morphine tolerant animals relative to DPI-125 tolerant animals ([5]; more potent in morphine tolerant): 1.7 fold
antinociceptive ED50 ([5]; morphine tolerant animals): 0.717 mg/kg
antinociceptive ED50 ([5]; naive animals): 0.407 mg/kg
delta-opioid agonist activity [6]: acts as a delta-opioid agonist
delta receptor agonist activity [7]: an agonist at the delta receptor
Therapeutic Ratio [8]: 14.4
therapeutic index relative to morphine [8]: approximately 7 ×
ED50 (in vivo): 0.72 mg/kg

CN1CC[C@]23c4c5ccc(O)c4O[C@H]2[C@@H](O)C=C[C@H]3[C@H]1C5 [Morphine, morphine, reference compound]
Analgesic ED50 Tail Pinch [1]: 2.01 mg/kg
Mean MPE [4, 10]: 2.63%
Mean MPE [4, 11]: 1.76%
Mean MPE [4, 12]: 0.00%
Mean MPE [4, 13]: 1.75%
Mean MPE [4, 14]: 3.51%
Mean MPE [4, 15]: 0.00%
Mean MPE [4, 16]: 0.88%
Mean MPE [4, 17]: 0.00%
MPE on Day 1 [4]: 100%
time to maximal/complete tolerance [4]: 5 days
Mean MPE [4, 18]: 4.4%
Mean MPE [4, 19]: 4.4%
Mean MPE [4, 20]: 0.9%
Mean MPE [4, 21]: 2.6%
Mean MPE [4, 22]: 0.0%
Mean MPE [4, 23]: 0.9%
Mean MPE [4, 24]: 2.6%
Mean MPE [4, 25]: 1.8%
Mean MPE [4, 26]: 100.0%
Mean MPE [4, 27]: 100.0%
Mean MPE [4, 28]: 100.0%
Mean MPE [4, 29]: 100.0%
Mean MPE [4, 30]: 78.9%
Mean MPE ([4]; tolerance development, dose 3 (day 2), s.c. BID, 20 minutes post-drug, listed as morphine sulfate): 78.9±7.9%
Mean MPE [4, 31]: 75.9%
Mean MPE ([4]; tolerance development, dose 3 (day 2), s.c. BID, 30 minutes post-drug, listed as morphine sulfate): 78.9±8.6%
Mean MPE [4, 32]: 56.6%
Mean MPE [4, 33]: 57.9%
Mean MPE [4, 34]: 33.8%
Mean MPE [4, 35]: 46.5%
Mean MPE [4, 36]: 32.9%
Mean MPE [4, 37]: 24.1%
Mean MPE [4, 38]: 23.7%
Mean MPE [4, 39]: 20.6%
Mean MPE [4, 40]: 7.0%
Mean MPE ([4]; tolerance development, dose 8 (day 4.25), s.c. BID, 20 minutes post-drug, listed as morphine sulfate): 7.0±2.8%
Mean MPE [4, 41]: 5.7%
Mean MPE ([4]; tolerance development, dose 8 (day 4.25), s.c. BID, 30 minutes post-drug, listed as morphine sulfate): 5.7±1.8%
Mean MPE [4, 42]: 3.1%
Mean MPE ([4]; tolerance development, dose 9 (day 5), s.c. BID, 20 minutes post-drug, listed as morphine sulfate): 3.1±1.2%
Mean MPE [4, 43]: 2.2%
Mean MPE ([4]; tolerance development, dose 9 (day 5), s.c. BID, 30 minutes post-drug, listed as morphine sulfate): 2.2±1.0%
Mean MPE [4, 44]: 5.3%
Mean MPE [4, 45]: 3.9%
antinociceptive effect / tolerance in DPI-125 tolerant animals [4]: complete tolerance
antinociceptive effect / tolerance in DPI-125 tolerant animals ([4]; listed as morphine sulfate): no antinociceptive effects
antinociceptive effect / tolerance in morphine tolerant animals [4]: no antinociceptive effects
Fold Change of ED50 [5, 46]: 7.8 fold
ED50 ([5]; DPI-125 tolerant animals): 15.8 mg/kg
ED50 ([5]; morphine tolerant animals): 11.3 mg/kg
ED50 ([5]; naive animals): 2.04 mg/kg
Fold Change of ED50 ([5]; morphine tolerant versus naive animals): 5.5 fold
antinociceptive ED50 ([5]; naive animals): 2.037 mg/kg
Therapeutic Ratio [8]: 2.1
ED50 (in vivo): 4.23 mg/kg
